One experiment concerns procollagen I. As to the kind of experiment: In vitro skin biomarker test, procollagen I ELISA in MatTek human skin equivalent. It is filed as cell-based. Conditions: average of cultures, 24 hours after treatment; Glyco-Repair 3% topical, TGF-b 2 ng/mL in media. The procedure:
(§1) The model used in the test is a MatTek™ brand human skin equivalent available from the MatTek Corporation, which is a full thickness culture system that emulates normal human skin properties and function. The MatTek™ brand skin model contains a three-dimensional, highly differentiated human epidermis with 8-12 cell layers including basal, spinous, granular and stratum corneum layers. The epidermis is grown above a human dermal fibroblast-containing collagen matrix. The skin model is configured to permit the topical application of test materials to the stratum corneum surface of the model. The skin model cultures are supplied in 24-well plate. Each well of the plate includes a snap-well fitting and the skin culture in a media-supplemented agarose gel.
(§2) Prior to testing, the skin model cultures are examined for visual defects and equilibrated overnight at 37° C., 5% CO2, and 95% RH. The skin cultures were transferred to fresh 24-well plates by removing the snap-well fitting along with the skin culture and placing it in a well of the new plate. […]
(§3) Twenty-four hours after treatment, the skin cultures were removed from the incubator and visually inspected for defects (e.g., to see if media leaked up through the culture insert). […] The supernatant was collected and analyzed with a Micro BCA kit to quantitate protein concentration. […]

In the next experiment the test system is hyalauronic acid. As to the kind of experiment: In vitro skin biomarker test, hyalauronic acid ELISA in MatTek human skin equivalent. Conditions: 24 hours after treatment, Glyco-Repair 3% topical, TGF-b 2 ng/mL in media. It is filed as cell-based. The procedure:
as §1, §2, §3

This note sets out measurements from patent publication US20130280187A1, “Compositions and Methods for Improving the Appearance of Facial Pores” (THE PROCTER & GAMBLE COMPANY, priority 2012, published 2013).

“And” between values parts separate entries of the source, which are not always exact repeats. Equal values may be shown once.

On to transforming growth factor beta [TGF-b], for which the “Avg Normalized Protein (procollagen I)” value in the experiment with procollagen I is reported as 29.8. In the experiment with hyalauronic acid (average of cultures), the “Avg (normalized protein, hyalauronic acid)” value was 2.8. Moreover, in the experiment with hyalauronic acid (single skin cultures), the HA is 562 ng/mL and 480 ng/mL and 598 ng/mL and 545 ng/mL and 568 ng/mL.
